Results on four compounds are retold here after PMC11261611, “Tongue-on-a-Chip: Parallel Recording of Sweet and Bitter Receptor Responses to Sequential Injections of Pure and Mixed Sweeteners” (Journal of Agricultural and Food Chemistry, 2024).

The EC50 is the concentration needed to bring the measured effect to its halfway point.

For test [1], the target named is T1, sweet taste receptor TAS1R2/R3 (TAS1R2) (Homo sapiens, UniProt Q7RTX0+Q8TE23).
T1 construct: with TAS1R3
T1 sequence (Q8TE23 20-839): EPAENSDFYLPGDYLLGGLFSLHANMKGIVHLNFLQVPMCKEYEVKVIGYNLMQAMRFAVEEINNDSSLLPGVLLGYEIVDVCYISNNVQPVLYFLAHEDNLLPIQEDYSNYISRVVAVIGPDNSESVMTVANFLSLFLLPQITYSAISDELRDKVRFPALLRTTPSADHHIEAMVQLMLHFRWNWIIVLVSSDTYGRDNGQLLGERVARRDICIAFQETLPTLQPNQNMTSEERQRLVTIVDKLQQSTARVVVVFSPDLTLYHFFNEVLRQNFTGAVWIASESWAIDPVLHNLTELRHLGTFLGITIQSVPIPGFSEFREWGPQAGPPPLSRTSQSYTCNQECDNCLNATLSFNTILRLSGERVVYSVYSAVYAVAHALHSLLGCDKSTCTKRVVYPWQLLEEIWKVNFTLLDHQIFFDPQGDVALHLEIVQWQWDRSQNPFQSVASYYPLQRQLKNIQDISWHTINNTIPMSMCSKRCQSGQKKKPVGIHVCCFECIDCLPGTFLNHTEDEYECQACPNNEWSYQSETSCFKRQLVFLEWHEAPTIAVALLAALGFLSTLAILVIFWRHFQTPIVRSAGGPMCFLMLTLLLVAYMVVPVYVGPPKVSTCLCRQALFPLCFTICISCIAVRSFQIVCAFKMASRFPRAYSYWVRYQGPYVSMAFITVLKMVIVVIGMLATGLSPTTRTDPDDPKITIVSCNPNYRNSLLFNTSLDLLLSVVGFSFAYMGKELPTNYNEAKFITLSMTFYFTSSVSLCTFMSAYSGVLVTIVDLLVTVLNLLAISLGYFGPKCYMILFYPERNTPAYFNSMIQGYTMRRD
T1 sequence (Q7RTX0 21-852): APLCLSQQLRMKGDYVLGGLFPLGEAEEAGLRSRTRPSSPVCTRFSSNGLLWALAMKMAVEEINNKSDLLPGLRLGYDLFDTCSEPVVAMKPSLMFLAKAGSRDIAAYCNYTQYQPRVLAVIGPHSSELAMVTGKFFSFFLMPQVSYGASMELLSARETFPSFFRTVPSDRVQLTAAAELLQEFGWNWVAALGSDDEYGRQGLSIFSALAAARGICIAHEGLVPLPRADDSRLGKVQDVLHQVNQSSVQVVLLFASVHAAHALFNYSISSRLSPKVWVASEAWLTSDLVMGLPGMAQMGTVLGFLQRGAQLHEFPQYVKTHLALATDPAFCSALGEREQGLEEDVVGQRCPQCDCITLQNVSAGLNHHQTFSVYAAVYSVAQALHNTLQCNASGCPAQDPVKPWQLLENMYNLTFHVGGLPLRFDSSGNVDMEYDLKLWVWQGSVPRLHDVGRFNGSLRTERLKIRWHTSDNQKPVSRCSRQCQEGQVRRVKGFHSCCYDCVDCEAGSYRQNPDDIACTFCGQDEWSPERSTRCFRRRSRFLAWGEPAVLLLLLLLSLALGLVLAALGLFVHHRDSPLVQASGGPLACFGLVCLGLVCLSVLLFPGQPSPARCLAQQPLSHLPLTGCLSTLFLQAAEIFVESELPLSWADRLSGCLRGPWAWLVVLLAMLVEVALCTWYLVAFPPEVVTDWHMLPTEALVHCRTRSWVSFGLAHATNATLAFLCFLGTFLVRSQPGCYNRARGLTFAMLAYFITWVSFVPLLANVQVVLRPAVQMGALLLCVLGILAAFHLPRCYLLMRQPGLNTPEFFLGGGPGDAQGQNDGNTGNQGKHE
The test can be described thus: calcium (Twitch2B FRET) response in reverse-transfected HEK293-Gα[…]GUST44 receptor array, normalized against umami receptor signal. Format: cell-based.

The target of test [2] is T1, sweet taste receptor TAS1R2/R3 (TAS1R2). The test can be described thus: calcium (Twitch2B FRET) response in reverse-transfected HEK293-Gα[…]GUST44 receptor array, flow cell. The format is cell-based.
Another test concerns the target T2, TAS2R8 (Homo sapiens, UniProt Q9NYW2).
T2 sequence (Q9NYW2 1-309): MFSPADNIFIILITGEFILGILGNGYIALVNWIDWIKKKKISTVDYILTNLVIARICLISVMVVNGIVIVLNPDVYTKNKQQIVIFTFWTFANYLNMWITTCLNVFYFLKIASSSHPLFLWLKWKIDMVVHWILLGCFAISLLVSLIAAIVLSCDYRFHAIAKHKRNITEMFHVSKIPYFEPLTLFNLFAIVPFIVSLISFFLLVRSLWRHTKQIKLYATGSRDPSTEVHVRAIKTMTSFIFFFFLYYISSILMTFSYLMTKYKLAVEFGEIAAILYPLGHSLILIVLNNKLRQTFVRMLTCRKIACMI
To be noted: hek293 cells.

The target in another test is TAS2R31 (Homo sapiens, UniProt P59538). To be noted: hek293 cells.
Chain of TAS2R31 (P59538 whole entry): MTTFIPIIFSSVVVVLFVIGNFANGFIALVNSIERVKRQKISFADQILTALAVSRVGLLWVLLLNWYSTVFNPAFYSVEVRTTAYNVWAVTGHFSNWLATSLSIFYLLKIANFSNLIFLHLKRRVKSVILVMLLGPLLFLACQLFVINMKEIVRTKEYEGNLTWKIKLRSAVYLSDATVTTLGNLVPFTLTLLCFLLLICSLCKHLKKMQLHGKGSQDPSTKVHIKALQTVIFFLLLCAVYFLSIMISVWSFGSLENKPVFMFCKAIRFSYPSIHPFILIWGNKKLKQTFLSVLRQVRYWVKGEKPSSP
The next test concerns the target T3, TAS2R43 (Homo sapiens, UniProt P59537).
T3 sequence (P59537 1-309): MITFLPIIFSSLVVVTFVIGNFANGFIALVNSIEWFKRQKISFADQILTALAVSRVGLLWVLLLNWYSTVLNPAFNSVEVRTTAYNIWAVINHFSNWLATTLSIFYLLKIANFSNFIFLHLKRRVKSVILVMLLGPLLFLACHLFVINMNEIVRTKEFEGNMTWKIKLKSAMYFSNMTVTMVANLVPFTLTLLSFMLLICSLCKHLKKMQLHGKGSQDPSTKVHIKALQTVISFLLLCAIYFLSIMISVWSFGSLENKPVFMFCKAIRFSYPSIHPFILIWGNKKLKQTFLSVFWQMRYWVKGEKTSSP
The settings on record: hek293 cells.

Each structure is given as a SMILES string. Where a SMILES comes first, the peptide text is derived from it.

Consider `OC[C@H]1O[C@@](CO)(O[C@H]2O[C@H](CO)[C@@H](O)[C@H](O)[C@H]2O)[C@@H](O)[C@@H]1O` [sucrose], for which the EC50 in test [1] came to 35000 µM.

Regarding `COC(=O)[C@H](Cc1ccccc1)NC(=O)[C@@H](N)CC(=O)O` [aspartame] (H-Asp-Phe-OMe), the EC50 in test [2] is 625 µM. Take `O=S(=O)(O)NC1CCCCC1` [cyclamate]: the “% signal reduction” value at TAS2R8 is reported as 33 % signal reduction; on TAS2R31, 48 % signal reduction; on TAS2R43, 92 % signal reduction.

With `COC(=O)[C@H](Cc1ccccc1)NC(=O)[C@H](CC(=O)O)NCCCc1ccc(OC)c(O)c1` [advantame], in test [2], the EC50 was approximately 1.5 µM.
